# Values joined by “and” are separate entries in the source; they are usually repeats but may differ in a detail not shown here. Identical values can stand only once. Toxic doses and inconclusive results are not listed.
# Tested on: L1210 leukemia iv in BDF1 mice, survival T/C
# Assay: NCI In Vivo Anticancer Drug Screen. Data for tumor model L1210 Leukemia (intravenous) in B6D2F1 (BDF1) mice
# Details: higher = longer survival
# Method: The antitumor activity of compounds was measured in mice bearing transplantable tumors. Survival or tumor size were measured and the results are expressed as the measurement made in the treated group (T) divided by the measurement made in the vehicle treated control group (C). The tumor model used in this assay is L1210 Leukemia (intravenous) in B6D2F1 (BDF1) mice
# [1] = endpoint: mean survival time, dose: 100.0 mg/kg/injection, schedule: Q01DX001 (ip), vehicle: saline with Tween-80
# [2] = endpoint: mean survival time, dose: 150.0 mg/kg/injection, schedule: Q01DX001 (ip), vehicle: saline with Tween-80
compound,measurement,setting,value
O=NN(CCCl)C(=O)NC1CCC(NC(=O)N(CCCl)N=O)CC1 (stereo unspecified),T/C,"endpoint: mean survival time, dose: 23.0 mg/kg/injection, schedule: Q01DX001 (ip), vehicle: other",157 % of control and 193 % of control
same,T/C,"endpoint: mean survival time, dose: 38.0 mg/kg/injection, schedule: Q01DX001 (oral), vehicle: other",124 % of control
same,T/C,"endpoint: mean survival time, dose: 44.0 mg/kg/injection, schedule: Q01DX001 (ip), vehicle: saline with Tween-80",169 % of control
same,T/C,"endpoint: mean survival time, dose: 48.0 mg/kg/injection, schedule: Q01DX001 (ip), vehicle: other",450 % of control and 218 % of control
same,T/C,"endpoint: mean survival time, dose: 67.0 mg/kg/injection, schedule: Q01DX001 (ip), vehicle: saline with Tween-80",178 % of control and 169 % of control
same,T/C,"endpoint: mean survival time, dose: 84.0 mg/kg/injection, schedule: Q01DX001 (oral), vehicle: other",150 % of control and 165 % of control
same,T/C,"endpoint: mean survival time, dose: 96.0 mg/kg/injection, schedule: Q01DX001 (ip), vehicle: other",375 % of control and 594 % of control
same,T/C,[1],246 % of control and 238 % of control
same,T/C,[2],255 % of control and 263 % of control
same,T/C,"endpoint: mean survival time, dose: 171.0 mg/kg/injection, schedule: Q01DX001 (oral), vehicle: other",177 % of control and 214 % of control
same,T/C,"endpoint: mean survival time, dose: 191.0 mg/kg/injection, schedule: Q01DX001 (ip), vehicle: other",475 % of control and 531 % of control
same,T/C,"endpoint: mean survival time, dose: 225.0 mg/kg/injection, schedule: Q01DX001 (ip), vehicle: saline with Tween-80",438 % of control and 328 % of control
same,T/C,"endpoint: mean survival time, dose: 319.0 mg/kg/injection, schedule: Q01DX001 (oral), vehicle: other",453 % of control and 274 % of control
same,T/C,"endpoint: mean survival time, dose: 337.0 mg/kg/injection, schedule: Q01DX001 (ip), vehicle: saline with Tween-80",507 % of control
same,T/C,"endpoint: mean survival time, dose: 383.0 mg/kg/injection, schedule: Q01DX001 (ip), vehicle: other",340 % of control and 381 % of control
same,T/C,"endpoint: mean survival time, dose: 638.0 mg/kg/injection, schedule: Q01DX001 (oral), vehicle: other",478 % of control and 554 % of control
CCCCc1ccc2nc(NC(=O)OC)[nH]c2c1,T/C,"endpoint: median survival time, dose: 30.0 mg/kg/injection, schedule: Q04DX003 (iv), vehicle: saline",100 % of control
same,T/C,"endpoint: median survival time, dose: 40.0 mg/kg/injection, schedule: Q04DX003 (iv), vehicle: saline",110 % of control
same,T/C,"endpoint: median survival time, dose: 50.0 mg/kg/injection, schedule: Q04DX003 (iv), vehicle: saline",113 % of control
O=NN(CCCl)C(=O)NC1CCC(=O)NC1=O (stereo unspecified),T/C,"endpoint: mean survival time, dose: 4.0 mg/kg/injection, schedule: Q01DX001 (ip), vehicle: other",162 % of control and 175 % of control
same,T/C,"endpoint: mean survival time, dose: 8.0 mg/kg/injection, schedule: Q01DX001 (ip), vehicle: other",244 % of control and 260 % of control
same,T/C,"endpoint: mean survival time, dose: 17.0 mg/kg/injection, schedule: Q01DX001 (ip), vehicle: other",380 % of control and 428 % of control
same,T/C,"endpoint: mean survival time, dose: 35.0 mg/kg/injection, schedule: Q01DX001 (ip), vehicle: other",395 % of control and 570 % of control
N[C@@H](Cc1ccc(N(CCCl)CCCl)cc1)C(=O)O,T/C,"endpoint: mean survival time, dose: 0.1 mg/kg/injection, schedule: Q01DX015 (ip), vehicle: carboxymethylcellulose (CMC)",94 % of control and 103 % of control
same,T/C,"endpoint: mean survival time, dose: 0.2 mg/kg/injection, schedule: Q01DX015 (ip), vehicle: carboxymethylcellulose (CMC)",107 % of control and 96 % of control
same,T/C,"endpoint: mean survival time, dose: 0.4 mg/kg/injection, schedule: Q01DX015 (ip), vehicle: carboxymethylcellulose (CMC)",107 % of control and 98 % of control
same,T/C,"endpoint: mean survival time, dose: 0.8 mg/kg/injection, schedule: Q01DX015 (ip), vehicle: carboxymethylcellulose (CMC)",100 % of control and 103 % of control
same,T/C,"endpoint: mean survival time, dose: 1.13 mg/kg/injection, schedule: Q01DX001 (ip), vehicle: carboxymethylcellulose (CMC)",105 % of control
same,T/C,"endpoint: mean survival time, dose: 1.6 mg/kg/injection, schedule: Q01DX015 (ip), vehicle: carboxymethylcellulose (CMC)",107 % of control and 101 % of control
same,T/C,"endpoint: mean survival time, dose: 1.7 mg/kg/injection, schedule: Q01DX001 (ip), vehicle: carboxymethylcellulose (CMC)",95 % of control and 102 % of control
same,T/C,"endpoint: mean survival time, dose: 2.25 mg/kg/injection, schedule: Q01DX001 (ip), vehicle: carboxymethylcellulose (CMC)",109 % of control and 96 % of control
same,T/C,"endpoint: mean survival time, dose: 3.0 mg/kg/injection, schedule: Q01DX001 (ip), vehicle: carboxymethylcellulose (CMC)",106 % of control and 97 % of control
same,T/C,"endpoint: mean survival time, dose: 4.5 mg/kg/injection, schedule: Q01DX001 (ip), vehicle: carboxymethylcellulose (CMC)",105 % of control and 113 % of control
same,T/C,"endpoint: mean survival time, dose: 4.75 mg/kg/injection, schedule: Q01DX001 (ip), vehicle: Klucel (hydroxypropylcellulose) (HPC)",104 % of control and 105 % of control
same,T/C,"endpoint: mean survival time, dose: 7.0 mg/kg/injection, schedule: Q01DX001 (ip), vehicle: carboxymethylcellulose (CMC)",105 % of control
same,T/C,"endpoint: mean survival time, dose: 9.0 mg/kg/injection, schedule: Q01DX001 (ip), vehicle: carboxymethylcellulose (CMC)",155 % of control
same,T/C,"endpoint: mean survival time, dose: 14.0 mg/kg/injection, schedule: Q01DX001 (ip), vehicle: carboxymethylcellulose (CMC)",181 % of control
same,T/C,"endpoint: mean survival time, dose: 14.25 mg/kg/injection, schedule: Q01DX001 (ip), vehicle: Klucel (hydroxypropylcellulose) (HPC)",177 % of control
same,T/C,"endpoint: mean survival time, dose: 15.0 mg/kg/injection, schedule: Q01DX001 (ip), vehicle: saline",163 % of control and 195 % of control
same,T/C,"endpoint: mean survival time, dose: 18.0 mg/kg/injection, schedule: Q01DX001 (ip), vehicle: carboxymethylcellulose (CMC)",190 % of control and 255 % of control
same,T/C,"endpoint: mean survival time, dose: 19.0 mg/kg/injection, schedule: Q01DX001 (ip), vehicle: Klucel (hydroxypropylcellulose) (HPC)",214 % of control and 215 % of control
same,T/C,"endpoint: mean survival time, dose: 23.75 mg/kg/injection, schedule: Q01DX001 (ip), vehicle: Klucel (hydroxypropylcellulose) (HPC)",177 % of control
same,T/C,"endpoint: mean survival time, dose: 29.0 mg/kg/injection, schedule: Q01DX001 (ip), vehicle: carboxymethylcellulose (CMC)",206 % of control
Nc1n[nH]c(N)n1,T/C,"endpoint: mean survival time, dose: 100.0 mg/kg/injection, schedule: Q03HX024 (ip), vehicle: saline",104 % of control and 91 % of control and 100 % of control
same,T/C,"endpoint: mean survival time, dose: 150.0 mg/kg/injection, schedule: Q03HX024 (ip), vehicle: saline",103 % of control (2×) and 104 % of control
same,T/C,"endpoint: mean survival time, dose: 225.0 mg/kg/injection, schedule: Q03HX024 (ip), vehicle: saline",112 % of control and 116 % of control
same,T/C,"endpoint: mean survival time, dose: 335.0 mg/kg/injection, schedule: Q03HX024 (ip), vehicle: saline",153 % of control and 159 % of control (2×)
same,T/C,"endpoint: mean survival time, dose: 500.0 mg/kg/injection, schedule: Q03HX024 (ip), vehicle: saline",201 % of control and 215 % of control and 257 % of control
same,T/C,"endpoint: mean survival time, dose: 4000.0 mg/kg/injection, schedule: Q01DX001 (ip), vehicle: saline",120 % of control
CCCCCCCCCCCCCCCC(=O)OCC1OC(n2ccc(N)nc2=O)C(O)C1O (stereo unspecified),T/C,"endpoint: mean survival time, dose: 5.0 mg/kg/injection, schedule: Q01DX005 (ip), vehicle: other",118 % of control and 122 % of control
same,T/C,"endpoint: mean survival time, dose: 10.0 mg/kg/injection, schedule: Q01DX005 (ip), vehicle: other",172 % of control
same,T/C,"endpoint: mean survival time, dose: 15.0 mg/kg/injection, schedule: Q01DX005 (ip), vehicle: other",177 % of control
same,T/C,"endpoint: mean survival time, dose: 18.0 mg/kg/injection, schedule: Q01DX004 (ip), vehicle: other",165 % of control and 183 % of control
same,T/C,"endpoint: mean survival time, dose: 20.0 mg/kg/injection, schedule: Q01DX005 (ip), vehicle: other",175 % of control and 176 % of control and 200 % of control
same,T/C,"endpoint: mean survival time, dose: 25.0 mg/kg/injection, schedule: Q01DX005 (ip), vehicle: other",171 % of control and 211 % of control and 220 % of control
same,T/C,"endpoint: mean survival time, dose: 27.0 mg/kg/injection, schedule: Q01DX004 (ip), vehicle: other",182 % of control and 234 % of control
same,T/C,"endpoint: mean survival time, dose: 27.0 mg/kg/injection, schedule: Q02DX004 (ip), vehicle: other",178 % of control and 193 % of control
same,T/C,"endpoint: mean survival time, dose: 30.0 mg/kg/injection, schedule: Q01DX005 (ip), vehicle: other",217 % of control and 249 % of control and 252 % of control
same,T/C,"endpoint: mean survival time, dose: 35.0 mg/kg/injection, schedule: Q01DX005 (ip), vehicle: other",201 % of control and 267 % of control and 298 % of control
same,T/C,"endpoint: mean survival time, dose: 40.0 mg/kg/injection, schedule: Q01DX004 (ip), vehicle: other",263 % of control and 291 % of control
same,T/C,"endpoint: mean survival time, dose: 40.0 mg/kg/injection, schedule: Q02DX004 (ip), vehicle: other",213 % of control and 226 % of control
same,T/C,"endpoint: mean survival time, dose: 40.0 mg/kg/injection, schedule: Q03DX004 (ip), vehicle: other",216 % of control and 246 % of control
same,T/C,"endpoint: mean survival time, dose: 60.0 mg/kg/injection, schedule: Q01DX004 (ip), vehicle: other",249 % of control and 323 % of control
same,T/C,"endpoint: mean survival time, dose: 60.0 mg/kg/injection, schedule: Q02DX004 (ip), vehicle: other",248 % of control and 280 % of control
same,T/C,"endpoint: mean survival time, dose: 60.0 mg/kg/injection, schedule: Q03DX004 (ip), vehicle: other",242 % of control and 305 % of control
same,T/C,"endpoint: mean survival time, dose: 60.0 mg/kg/injection, schedule: Q04DX004 (ip), vehicle: other",202 % of control and 260 % of control
same,T/C,"endpoint: mean survival time, dose: 90.0 mg/kg/injection, schedule: Q02DX004 (ip), vehicle: other",277 % of control and 309 % of control
same,T/C,"endpoint: mean survival time, dose: 90.0 mg/kg/injection, schedule: Q03DX004 (ip), vehicle: other",291 % of control and 328 % of control
same,T/C,"endpoint: mean survival time, dose: 90.0 mg/kg/injection, schedule: Q04DX004 (ip), vehicle: other",340 % of control and 303 % of control
same,T/C,[1],200 % of control
same,T/C,"endpoint: mean survival time, dose: 135.0 mg/kg/injection, schedule: Q03DX004 (ip), vehicle: other",175 % of control and 249 % of control
same,T/C,"endpoint: mean survival time, dose: 135.0 mg/kg/injection, schedule: Q04DX004 (ip), vehicle: other",267 % of control and 327 % of control
same,T/C,[2],229 % of control
same,T/C,"endpoint: mean survival time, dose: 200.0 mg/kg/injection, schedule: Q04DX004 (ip), vehicle: other",203 % of control and 244 % of control
same,T/C,"endpoint: median survival time, dose: 75.0 mg/kg/injection, schedule: Q04DX002 (ip), vehicle: saline with Tween-80",318 % of control and 327 % of control
same,T/C,"endpoint: median survival time, dose: 100.0 mg/kg/injection, schedule: Q04DX002 (ip), vehicle: saline with Tween-80",314 % of control and 315 % of control
